US9567302B2, “Carbamate compounds and of making and using same” (Abide Therapeutics, Inc., priority 2012, dated 2017)

Key:
Format in all cases: biochemical
Parameters in all cases: from tissue; host or cells: mouse brain membrane fraction
Conditions in all cases: 30 min preincubation at 37° C.
[1] = target: T1, ABHD6 (Mus musculus, UniProt Q8R2Y0); assay: In vitro competitive activity-based protein profiling (FP-Rh), mouse ABHD6
T1 sequence (Q8R2Y0 1-336): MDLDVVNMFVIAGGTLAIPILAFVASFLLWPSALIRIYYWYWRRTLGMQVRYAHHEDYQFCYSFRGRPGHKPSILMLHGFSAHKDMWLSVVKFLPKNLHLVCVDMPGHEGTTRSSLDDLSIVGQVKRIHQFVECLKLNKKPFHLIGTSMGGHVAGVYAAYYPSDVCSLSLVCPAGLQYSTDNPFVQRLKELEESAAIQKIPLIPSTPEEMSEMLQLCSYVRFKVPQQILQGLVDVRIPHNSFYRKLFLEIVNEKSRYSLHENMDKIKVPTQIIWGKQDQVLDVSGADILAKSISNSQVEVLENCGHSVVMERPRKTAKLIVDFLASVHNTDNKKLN
Experimental: (§1) In Vitro Competitive Activity-Based Protein Profiling.
(§2) Proteomes (mouse brain membrane fraction or cell lysates) (50 μL, 1.0 mg/ml total protein concentration) were preincubated with varying concentrations of inhibitors at 37° C. After 30 min, FP-Rh (1.0 μL, 50 μM in DMSO) was added and the mixture was incubated for another 30 min at 37° C. Reactions were quenched with SDS loading buffer (50 μL—4×) and run on SDS-PAGE.

[2] = target: T2, FAAH (Mus musculus, UniProt O08914); assay: In vitro competitive activity-based protein profiling (FP-Rh), mouse FAAH
T2 sequence (O08914 1-579): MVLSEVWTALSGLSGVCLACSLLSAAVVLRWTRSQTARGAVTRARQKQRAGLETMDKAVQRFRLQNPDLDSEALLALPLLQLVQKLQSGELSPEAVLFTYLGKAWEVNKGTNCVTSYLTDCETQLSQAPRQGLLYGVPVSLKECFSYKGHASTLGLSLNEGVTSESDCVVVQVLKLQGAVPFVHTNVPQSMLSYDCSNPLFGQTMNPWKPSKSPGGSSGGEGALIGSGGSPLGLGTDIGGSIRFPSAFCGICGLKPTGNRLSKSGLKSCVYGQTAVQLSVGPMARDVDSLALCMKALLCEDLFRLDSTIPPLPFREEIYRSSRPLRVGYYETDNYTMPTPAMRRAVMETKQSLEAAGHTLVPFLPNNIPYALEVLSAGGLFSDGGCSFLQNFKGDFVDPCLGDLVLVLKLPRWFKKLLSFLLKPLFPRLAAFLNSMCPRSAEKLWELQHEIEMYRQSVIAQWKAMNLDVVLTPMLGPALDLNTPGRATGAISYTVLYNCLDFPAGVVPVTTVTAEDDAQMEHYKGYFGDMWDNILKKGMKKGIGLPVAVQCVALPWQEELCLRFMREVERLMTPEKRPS
Experimental: as §1, §2

[3] = target: T3, MAGL (Mus musculus, UniProt O35678); assay: In vitro competitive activity-based protein profiling (FP-Rh), mouse MAGL
T3 sequence (O35678 1-303): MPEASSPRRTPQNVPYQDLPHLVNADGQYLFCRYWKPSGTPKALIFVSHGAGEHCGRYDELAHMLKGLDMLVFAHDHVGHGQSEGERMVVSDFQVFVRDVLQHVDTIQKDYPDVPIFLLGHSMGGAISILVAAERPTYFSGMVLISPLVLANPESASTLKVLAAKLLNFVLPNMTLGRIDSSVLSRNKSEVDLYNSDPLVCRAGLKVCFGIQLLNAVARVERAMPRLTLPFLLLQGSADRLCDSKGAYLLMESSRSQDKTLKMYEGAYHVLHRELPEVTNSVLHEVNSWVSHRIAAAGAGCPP
Experimental: as §1, §2

Row | Structure (SMILES) | IC50 ([1]; Table 1, mouse proteome) [nM] | IC50 ([2]; Table 1, mouse proteome) [nM] | IC50 ([3]; Table 1, mouse proteome) [nM] | IC50 ([1]; Table 2, mouse proteome) [nM] | IC50 ([2]; Table 2, mouse proteome) [nM] | IC50 ([3]; Table 2, mouse proteome) [nM]
1 | COc1ccc(N2CCN(C(=O)ON3C(=O)c4ccccc4C3=O)CC2)cc1 [Example 34, 1,3-Dioxo-2,3-dihydro-1H-isoindol-2-yl 4-(4-methoxyphenyl)piperazine-1-carboxylate] | < 100 | 100 to 1000 | > 10000 | – | – | –
2 | O=C(ON1C(=O)CC(c2ccccc2)C1=O)N1CCN(C(c2ccc(Cl)cc2)c2ccc(Cl)cc2)CC1 (stereo not drawn) [Example 44, 2,5-Dioxo-3-phenylpyrrolidin-1-yl 4-(bis(4-chlorophenyl)methyl)piperazine-1-carboxylate] | 1000 to 10000 | > 10000 | 1000 to 10000 | – | – | –
3 | Cc1cc(Cl)ccc1C(c1ccc(Cl)cc1C)N1CCN(C(=O)ON2C(=O)CCC2=O)CC1 [Example 153, 2,5-Dioxopyrrolidin-1-yl 4-(bis(4-chloro-2-methylphenyl)methyl)piperazine-1-carboxylate] | – | – | – | 1000 to 10000 | > 10000 | 100 to 1000
4 | Cn1cc(CN2CCN(C(=O)ON3C(=O)CCC3=O)CC2)c(-c2ccccc2)n1 [Example 149, 2,5-Dioxopyrrolidin-1-yl 4-((1-methyl-3-phenyl-1H-pyrazol-4-yl)methyl)piperazine-1-carboxylate] | – | – | – | 1000 to 10000 | > 10000 | 1000 to 10000
5 | Cc1c(CN2CCN(C(=O)ON3C(=O)CCC3=O)CC2)cccc1N1CCCC1 [Example 123, 2,5-Dioxopyrrolidin-1-yl 4-(2-methyl-3-(pyrrolidin-1-yl)benzyl)piperazine-1-carboxylate] | – | – | – | 100 to 1000 | > 10000 | < 100
6 | CN1CC(=O)N(OC(=O)N2CCN(C(c3ccc(Cl)cc3)c3ccc(Cl)cc3)CC2)C1=O [Example 56, 3-Methyl-2,5-dioxoimidazolidin-1-yl 4-(bis(4-chlorophenyl)methyl)piperazine-1-carboxylate] | 100 to 1000 | > 10000 | < 100 | – | – | –
7 | O=C(ON1C(=O)CCC1=O)N1CCCC1 [Example 29, 2,5-Dioxopyrrolidin-1-yl pyrrolidine-1-carboxylate] | > 10000 | > 10000 | > 10000 | – | – | –
8 | C#CCCC(=O)N1CCN(C(=O)ON2C(=O)CCC2=O)CC1 [Example 26, 2,5-Dioxopyrrolidin-1-yl 4-(pent-4-ynoyl)piperazine-1-carboxylate] | > 10000 | > 10000 | > 10000 | – | – | –
9 | O=C(ON1C(=O)CCC1=O)N1CCN(Cc2ccc(N3CCOCC3)cc2Cl)CC1 [Example 94, 2,5-Dioxopyrrolidin-1-yl 4-(2-chloro-4-morpholinobenzyl)piperazine-1-carboxylate] | – | – | – | 1000 to 10000 | > 10000 | 1000 to 10000
10 | Cc1cc(-c2ccccc2)ccc1CN1CCN(C(=O)ON2C(=O)CCC2=O)CC1 [Example 165, 2,5-Dioxopyrrolidin-1-yl 4-[(2-methyl-4-phenylphenyl)methyl]piperazine-1-carboxylate] | – | – | – | 100 to 1000 | 1000 to 10000 | 100 to 1000
11 | O=C(ON1C(=O)CCC1=O)N1CCN(Cc2ccc(N3CCOCC3)cc2F)CC1 [Example 62, 2,5-Dioxopyrrolidin-1-yl 4-(2-fluoro-4-morpholinobenzyl)-piperazine-1-carboxylate] | – | – | – | 1000 to 10000 | > 10000 | 1000 to 10000
12 | Cc1nc2ccc(Cl)cn2c1CN1CCN(C(=O)ON2C(=O)CCC2=O)CC1 [Example 144] | – | – | – | 100 to 1000 | > 10000 | 1000 to 10000
13 | O=C(ON1C(=O)CCC1=O)N1CCN(Cc2cnc3ccc(Cl)cn23)CC1 [Example 145, 2,5-Dioxopyrrolidin-1-yl 4-((6-chloroimidazo[1,2-a]pyridin-3-yl)methyl)piperazine-1-carboxylate] | – | – | – | 1000 to 10000 | > 10000 | 1000 to 10000
14 | O=C(ON1C(=O)CCC1=O)N1CCN(Cc2ccc(Br)cc2N2CCCCC2)CC1 [Example 65, 2,5-Dioxopyrrolidin-1-yl 4-(4-bromo-2-(piperidin-1-yl)benzyl)piperazine-1-carboxylate] | – | – | – | 100 to 1000 | 1000 to 10000 | < 100
15 | CC1(C)CC(=O)N(OC(=O)N2CCN(C(c3ccc(Cl)cc3)c3ccc(Cl)cc3)CC2)C1=O [Example 42, 3,3-Dimethyl-2,5-dioxopyrrolidin-1-yl 4-(bis(4-chlorophenyl)methyl)piperazine-1-carboxylate] | 1000 to 10000 | > 10000 | 1000 to 10000 | – | – | –
16 | COc1ccc(N2CCN(C(=O)ON3C(=O)NC(C(C)C)C3=O)CC2)cc1 (stereo not drawn) [Example 55, 4-Isopropyl-2,5-dioxoimidazolidin-1-yl 4-(4-methoxyphenyl)piperazine-1-carboxylate] | < 100 | 1000 to 10000 | > 10000 | – | – | –
17 | CCCN(Cc1ccc(N2CCCCC2)cc1)C(=O)ON1C(=O)CCC1=O [Example 19, 2,5-Dioxopyrrolidin-1-yl N-{[4-(piperidin-1-yl)phenyl]methyl}-N-propylcarbamate] | > 10000 | > 10000 | > 10000 | – | – | –
18 | CN(CCc1ccccc1)C(=O)ON1C(=O)CCC1=O [Example 15, 2,5-Dioxopyrrolidin-1-yl N-methyl-N-(2-phenylethyl)carbamate] | > 10000 | > 10000 | > 10000 | – | – | –
19 | O=C1CCC(=O)N1OC(=O)N1CCCCC1CO (stereo not drawn) [Example 11, 2,5-Dioxopyrrolidin-1-yl 2-(hydroxymethyl)piperidine-1-carboxylate] | > 10000 | > 10000 | > 10000 | – | – | –
20 | O=C(ON1C(=O)CC(c2ccccc2)C1=O)N1CCCCC1 (stereo not drawn) [Example 60, 2,5-Dioxo-3-phenylpyrrolidin-1-yl piperidine-1-carboxylate] | > 10000 | > 10000 | > 10000 | – | – | –
21 | O=C(ON1C(=O)CCC1=O)N1CCN(Cc2ccc(Cl)cc2N2CCCC2)CC1 [Example 74, 2,5-Dioxopyrrolidin-1-yl 4-(4-chloro-2-(pyrrolidin-1-yl)benzyl)piperazine-1-carboxylate] | – | – | – | 100 to 1000 | > 10000 | < 100
22 | O=C(ON1C(=O)CCC1=O)N1CCN(Cc2cccc(N3CCOCC3)c2)CC1 [Example 83, 2,5-Dioxopyrrolidin-1-yl 4-(3-morpholinobenzyl)piperazine-1-carboxylate] | – | – | – | 100 to 1000 | > 10000 | 100 to 1000
23 | Cc1cc(N2CCN(C(=O)ON3C(=O)CCC3=O)CC2)c2ccccc2n1 [Example 18, 2,5-Dioxopyrrolidin-1-yl 4-(2-methylquinolin-4-yl)piperazine-1-carboxylate] | 1000 to 10000 | > 10000 | 100 to 1000 | – | – | –
24 | O=C(ON1C(=O)CCC1=O)N1CCN(Cc2ccc(C(F)(F)F)cc2N2CCOCC2)CC1 [Example 91, 2,5-Dioxopyrrolidin-1-yl 4-{[2-(morpholin-4-yl)-4-(trifluoromethyl)phenyl]methyl}piperazine-1-carboxylate] | – | – | – | 100 to 1000 | > 10000 | < 100
25 | COc1ccc(N2CCN(C(=O)ON3C(=O)CC(C)(C)C3=O)CC2)cc1 [Example 52, 3,3-Dimethyl-2,5-dioxopyrrolidin-1-yl 4-(4-methoxyphenyl)piperazine-1-carboxylate] | 100 to 1000 | > 10000 | > 10000 | – | – | –
26 | O=C(ON1C(=O)CCC1=O)N1CCC1 [Example 30, 2,5-Dioxopyrrolidin-1-yl azetidine-1-carboxylate] | > 10000 | > 10000 | > 10000 | – | – | –
27 | O=C1CCC(=O)N1OC(=O)N1CCCCC1CCc1ccccc1 (stereo not drawn) [Example 25, 2,5-Dioxopyrrolidin-1-yl 2-(2-phenylethyl)piperidine-1-carboxylate] | > 10000 | > 10000 | > 10000 | – | – | –
